The values that follow come from ChEMBL document CHEMBL4808250, “Synthesis and biological evaluation of substituted amide derivatives of C4-ageratochromene dimer analog” (Bioorg Med Chem Lett, 2021).

In one data set the test system is MDA-MB-231. The data set is described as follows: Antiproliferative activity against ER-negative human MDA-MB-231 cells assessed as reduction in cell growth at 50 ug/ml measured by MTT assay. In kind it is functional. To be noted: read-out: GI.
For data set [1], the system named is Calvarial osteoblast. The data set is described as follows: Induction of osteoblast differentiation in mouse calvarial osteoblasts assessed as increase in ALP activity at 1 pM incubated for 48 hrs by spectrophotometric analysis. It is filed as functional, cell-based.
The test system of the next data set is MCF7. The data set can be described thus: Antiproliferative activity against ER-positive human MCF7 cells assessed as reduction in cell growth at 50 ug/ml measured by MTT assay. To be noted: read-out: GI. It is filed as functional.
The test system of a further data set is PA-1. The data set can be described thus: Antiproliferative activity against human PA-1 cells assessed as reduction in cell growth at 50 ug/ml measured by MTT assay. To be noted: read-out: GI. In kind it is functional.
The test system of data set [2] is Calvarial osteoblast. The data set can be described thus: Induction of osteoblast differentiation in mouse calvarial osteoblasts assessed as increase in ALP activity at 100 pM incubated for 48 hrs by spectrophotometric analysis. In kind it is functional, cell-based.
The subject of data set [3] is Calvarial osteoblast. The data set can be described thus: Induction of osteoblast differentiation in mouse calvarial osteoblasts assessed as increase in bone mineralization at 1 pM incubated for 21 days by alizarin-red S dye based colorimetric analysis. It is filed as functional, cell-based. Particulars: time 21.0 day.
In data set [4] the test system is Calvarial osteoblast. The data set is described as follows: Induction of osteogenic differentiation in mouse calvarial osteoblasts assessed as increase in Type-1 collagen mRNA expression level at 1 to 100 pM after 24 to 48 hrs by RT-qPCR analysis. In kind it is functional, cell-based. Particulars: dose 1-100 pM, time 24-48 hrs.
Data set [5] relates to Calvarial osteoblast. The data set can be described thus: Induction of osteogenic differentiation in mouse calvarial osteoblasts assessed as increase in BMP2 mRNA expression level at 1 to 100 pM after 24 to 48 hrs by RT-qPCR analysis. In kind it is functional, cell-based. Particulars: dose 1-100 pM, time 24-48 hrs.
The test system of data set [6] is Calvarial osteoblast. The data set can be described thus: Induction of osteogenic differentiation in mouse calvarial osteoblasts assessed as increase in RUNX2 mRNA expression level at 1 to 100 pM after 24 to 48 hrs by RT-qPCR analysis. It is filed as functional, cell-based. Particulars: dose 1-100 pM, time 24-48 hrs.
Data set [7] concerns Calvarial osteoblast. The data set is described as follows: Cytotoxicity against mouse calvarial osteoblasts assessed as reduction in cell viability at 0.000001 to 1 uM measured after 48 hrs by MTT assay. To be noted: dose lower 1e-06 µM, dose upper 1 µM. It is filed as cell-based.

Activity calls are given as the source filed them. No cut-off for these calls is given here.

As to `CNCCCCNC(=O)CCCOc1ccc2c(c1)OC(C)(C)C/C2=C1/CC(C)(C)Oc2cc(OC)ccc21`, in the data set on MDA-MB-231, the inhibition of growth at 50 µg/mL came out at 36.5%.
Regarding `CNCCCCNC(=O)CCCCOc1ccc2c(c1)OC(C)(C)C/C2=C1/CC(C)(C)Oc2cc(OC)ccc21`, the figures for the inhibition of growth at 50 µg/mL in the data set with MDA-MB-231 and with MCF7 were 36.5% and 25.2%, respectively. The result with Calvarial osteoblast [1] was Active.
`COc1ccc2c(c1)OC(C)(C)C/C2=C1/CC(C)(C)Oc2cc(OCCCC(=O)N3CCCC3)ccc21`: the inhibition of growth at 50 µg/mL in the data set with MDA-MB-231 is 36.5%; with PA-1 it was 26.6%; with MCF7 it was 25.2%. In addition, the outcome in the data set on Calvarial osteoblast [1] was Active.
Regarding `COc1ccc2c(c1)OC(C)(C)C/C2=C1/CC(C)(C)Oc2cc(OCCCCCC(=O)NCc3ccccn3)ccc21`, the inhibition of growth at 50 µg/mL in the data set with MDA-MB-231 worked out at 36.5%.
For the compound `COc1ccc2c(c1)OC(C)(C)C/C2=C1/CC(C)(C)Oc2cc(OCCCCC(=O)NCc3ccccn3)ccc21`, the inhibition of growth at 50 µg/mL with MDA-MB-231 stood at 36.5%; with PA-1, 26.6%; in the data set on MCF7 it was 25.2%.
Consider `COc1ccc2c(c1)OC(C)(C)C/C2=C1/CC(C)(C)Oc2cc(OCCCC(=O)N3CCN(C)CC3)ccc21`, for which, in the data set on Calvarial osteoblast [2], the outcome was Active. The inhibition of growth at 50 µg/mL with MCF7 came to 25.2%.
Turning to `COc1ccc2c(c1)OC(C)(C)C/C2=C1/CC(C)(C)Oc2cc(O)ccc21`, the results for the inhibition of growth at 50 µg/mL in the data set on MDA-MB-231, with PA-1 and with MCF7 were 36.5%, 26.6% and 25.2%, respectively.
`COc1ccc2c(c1)OC(C)(C)C/C2=C1/CC(C)(C)Oc2cc(OC)ccc21`: the inhibition of growth at 50 µg/mL came to 36.5% in the data set with MDA-MB-231, 26.6% in the data set on PA-1 and 25.2% with MCF7.
Regarding `COc1ccc2c(c1)OC(C)(C)C/C2=C1/CC(C)(C)Oc2cc(OCCCCC(=O)N3CCN(C)CC3)ccc21`, the inhibition of growth at 50 µg/mL in the data set on MDA-MB-231 came out at 36.5%; with PA-1 it was 26.6%; with MCF7, 25.2%.
For `COc1ccc2c(c1)OC(C)(C)C/C2=C1/CC(C)(C)Oc2cc(OCCCC(=O)NCc3ccccn3)ccc21`, in the data set with PA-1, the inhibition of growth at 50 µg/mL amounted to 26.6%.
For `COc1ccc2c(c1)OC(C)(C)C/C2=C1/CC(C)(C)Oc2cc(OCCCCC(=O)N3CCCCC3)ccc21`, the figures for the inhibition of growth at 50 µg/mL in the data set on MDA-MB-231, with PA-1 and in the data set with MCF7 were 36.5%, 26.6% and 25.2%, respectively.
Take `CNCCCCNC(=O)CCCCCOc1ccc2c(c1)OC(C)(C)C/C2=C1/CC(C)(C)Oc2cc(OC)ccc21`: the inhibition of growth at 50 µg/mL was determined as 36.5% in the data set with MDA-MB-231, 26.6% with PA-1 and 25.2% with MCF7.
Regarding `COc1ccc2c(c1)OC(C)(C)C/C2=C1/CC(C)(C)Oc2cc(OCCCC(=O)N3CCCCC3)ccc21`, the result in the data set with Calvarial osteoblast [3], in the data set on Calvarial osteoblast [4], with Calvarial osteoblast [5], in the data set with Calvarial osteoblast [6] and in the data set with Calvarial osteoblast [1] was Active. The inhibition of growth at 50 µg/mL in the data set with MDA-MB-231 was 15.9%; with PA-1, 68.3%; with MCF7, 26.1%. In the data set on Calvarial osteoblast [7], the Activity result was “Non-Toxic”.
`COc1ccc2c(c1)OC(C)(C)C/C2=C1/CC(C)(C)Oc2cc(OCCCCCC(=O)N3CCCC3)ccc21`: in the data set on MCF7, the inhibition of growth at 50 µg/mL stood at 25.2%.
`COc1ccc2c(c1)OC(C)(C)C/C2=C1/CC(C)(C)Oc2cc(OCCCCCC(=O)N3CCCCC3)ccc21`: the inhibition of growth at 50 µg/mL in the data set on MDA-MB-231 came out at 36.5%; in the data set on PA-1, 26.6%.
Take `COc1ccc2c(c1)OC(C)(C)C/C2=C1/CC(C)(C)Oc2cc(OCCCCCC(=O)NCCCCCCNC(=O)OC(C)(C)C)ccc21`: the inhibition of growth at 50 µg/mL in the data set on MDA-MB-231 was 36.5%; in the data set with PA-1 it was 26.6%; in the data set on MCF7 it was 25.2%. Besides, the outcome in the data set with Calvarial osteoblast [2] was Active.
In the case of `COc1ccc2c(c1)OC(C)(C)C/C2=C1/CC(C)(C)Oc2cc(OCCCCC(=O)N3CCCC3)ccc21`, the inhibition of growth at 50 µg/mL amounted to 36.5% in the data set with MDA-MB-231, 26.6% in the data set with PA-1 and 25.2% with MCF7.
Turning to `COc1ccc2c(c1)OC(C)(C)C/C2=C1/CC(C)(C)Oc2cc(OCCCC(=O)NCCCCCCNC(=O)OC(C)(C)C)ccc21`, the inhibition of growth at 50 µg/mL was 36.5% in the data set with MDA-MB-231 and 26.6% with PA-1. The outcome in the data set on Calvarial osteoblast [1] was Active.
With `COc1ccc2c(c1)OC(C)(C)C/C2=C1/CC(C)(C)Oc2cc(OCCCCCC(=O)N3CCN(C)CC3)ccc21`, the inhibition of growth at 50 µg/mL stood at 26.6% in the data set on PA-1 and 25.2% with MCF7.
